Test results: patent US8648211B2, “Surface-modifying silicone elastomers” (priority 2009, dated 2014)

Key:
Assay type in all cases: physicochemical
[1] = Water wetting (contact angle, spreading) on surface-modified PDMS
Experimental: (§1) ^1H NMR and ^13C NMR spectra were obtained on Bruker AC-200 (200-MHz) spectrometer. The molecular weight and mass spectra were determined on a Micromass Global Q-TOF Ultima (MALDI/CapLC-ESI Quadrupole Time of Flight) Mass Spectrometer. ATR-FTIR spectra were obtained on Bio-Rad FTS-40 (Fourier transform IR) spectrometer with an ATR accessory, on which a 45° rectangle ZnSe crystal was used. Surface water contact angle and surface tension were recorded using a Krüss V1.50 drop shape analyzer.
(§2) The ability of water to wet out a variety of surface modified silicones was also established using the drop shape analyzer. […] Prior to each test, the coupons were thoroughly washed by DI water (FIG. 8).
The magnitude of spreading of APS in water was examined, and water on APS tethered to silicone, but not yet considered is the rate of spreading: rapid rates of spreading are also emblematic of superwetters. The water spreading rate on APS-modified PDMS was calculated according to a literature method^26 where: spreading rate=dD/dt (1) and, spreading area=dΔS/dt, (2) wherein D is the diameter of water droplet, S is the surface area covered by water and t is the spreading time. […] That is, replacing a terminal alcohol, acetate, etc., on the PEG block with an allyl group leads only to subtle changes in wetting properties. The situation is quite different when the superwetter is tethered.

[2] = Hydrolytic stability of APS-modified PDMS soaked in pH 4 and pH 10 solutions
Experimental: as §2
The hydrolytic stability of APS-modified PDMS elastomers was tested by soaking for extended periods of time in aqueous pH=4 and pH=10 solutions. […] However, while spreading is impeded after the surface is exposed to such conditions, the water contact angle can still decrease to 20° over 2-3 minutes. The tethered APS is thus more resistant to hydrolytic degradation than APS in solution. Further degradation while soaking the tethered APS in an aqueous solution occurred in the second week, after which no superspreading effect was observed: contact angles decreased only to about 60° over 1-2 minutes.

[3] = Stability of aqueous surfactant solutions (decomposition in water)
Text: The durability and environmental stability of modified surfaces are factors to consider for their use in real applications. While silicones are normally very stable to degradation, provided that the conditions remain near neutrality, branched trisiloxanes are notoriously unstable to hydrolysis.^27 Superwetters are usually added to the agents to be dispersed and then used immediately in pH 7 buffers. […] However, it was possible that tethering the superwetter to a surface would change the hydrolytic susceptibility.

[4] = Wetting of polystyrene by aqueous surfactant solutions (drop shape analyzer); conditions: for surface area of drop versus buffer control on polystyrene: 0.1 wt % (0.2 wt %, 0.5 wt %) in phosphate buffer pH=7
Experimental: as §1
(§3) The ability of solutions of APS and related compounds to wet substrates was established using a drop shape analyzer. The contact angles and total spreading were established immediately after placing an aqueous drop volume ˜0.02 ml onto the surface of polystyrene (a new Petri dish) or a cleaned glass slide.
(§4) The ability of APS to disperse an aqueous phosphate buffer solution (pH=7) was determined on both hydrophobic (polystyrene) and hydrophilic (glass) surfaces. […] By contrast, when 1.5 wt % APS was included in the buffer, the maximum wetting diameter area on polystyrene was close to 6.16 cm^2, close to 200 times the area of the original buffer solution. Thus, APS has characteristics of typical superwetters.

[5] = Shelf-life of APS-modified PDMS stored in air, tested monthly over 5 months
Text: as §2
The shelf-life of the tethered APS was also established by testing spreading behavior monthly over a period of 5 months: samples of APS-modified surfaces were stored without any special protection on the laboratory bench. Subtle changes were observed over time. While the final contact angle (approaching zero) of water droplets was still achieved after 5 months, spreading rates changed appreciably. Rather than two distinct spreading rates, the droplet would spread to a specific radius, stop for several (typically up to 10) seconds and then spread to a new larger radius. This start-stop-start-stop process was repeated up to about 8 times at which point the approximately 0° contact angle was achieved.

[6] = Wetting of glass by aqueous surfactant solutions (drop shape analyzer); conditions: 0.1 wt % (0.2 wt %, 0.5 wt %) in phosphate buffer pH=7
Experimental: as §1, §3, §4

[7] = 0.02 ml water on APS-modified silicone elastomer
[8] = PDMS 1 wt % DC1107 grafted with 14.7 wt % APS, 0.02 ml water

Allyl PEO Siloxane [APS]
spreading rate of water droplet, first 3 seconds ([1]; 0.02 ml water on APS-modified PDMS (1 wt % DC1107, 14.7 wt % APS)): ~1 mm s^−1 | final area covered by water relative to original droplet size [1, 7]: about 15 times | water contact angle within about 1 minute [1, 7]: below 10 ° | contact angle at the edge of the spread droplet when the drop ceases to migrate ([1]; APS-modified PDMS): ~0 ° | increase of water spreading area during first 3 seconds [1, 8]: 8 times | spreading rate of water droplet, subsequent 30 seconds [1, 8]: approximately 0.1 mm s^−1 | water contact angle on APS-grafted silicone surfaces within one minute ([1]; distilled water, in some cases, depends on surface coverage): nearly zero | Contact Angle (°) ([1]; water droplets 0.02 ml on modified PDMS prepared with 1% DC1107): 0 ° | Wetting Diameter (mm) ([1]; water droplets 0.02 ml, initial radius ~1.0 mm, final diameter after 1 min, modified PDMS, 1% DC1107): 8 mm | water contact angle after soaking, second week ([2]; APS-modified PDMS soaked in aqueous solution, reached over 1-2 minutes, no superspreading): about 60 ° | water contact angle after soaking, first week ([2]; APS-modified PDMS soaked in pH=4 and pH=10 solutions, reached over 2-3 minutes): 20 ° | stability of aqueous solution [3]: decomposed in water over a few days to a week | area of one drop after spreading ([4]; 1 wt % aqueous solution, from 0.03 cm^2, in 5 seconds, surface not stated, data not shown): 4.91 cm^2 | maximum wetting diameter area on polystyrene ([4]; 1.5 wt % in aqueous phosphate buffer pH=7, 5 μl buffer control 0.031 cm^2): ~6.16 cm^2 | wetting area relative to the area of the original buffer solution ([4]; 1.5 wt % in phosphate buffer pH=7, polystyrene): ~200 times | spreading of aqueous solutions compared with commercial superwetter L77 ([4]; degree and velocity of spreading, surface not stated): approximately the same degree and at a similar velocity to the commercial superwetter L77 | final water contact angle after 5 months ([5]; APS-modified surface stored on the laboratory bench): approximately 0 ° | time surface remained superhydrophilic ([5]; APS-modified surface, storage in air): at least 5 months

bis-heptamethyltrisiloxanyl-PEG [SiPS]
surface area of drop versus buffer control on glass [6]: only marginally larger surface areas | surface area of drop versus buffer control on polystyrene [4]: only marginally larger surface areas

Diallyl-Terminated PEO [DAP]
superwetting properties of compound or compound-modified surfaces ([1]; in aqueous solution and grafted to PDMS): do not have superwetting properties | lowest contact angle of grafted PDMS ([1]; pure DAP grafted to PDMS at 10, 20, 50% in THF): 80 ° | surface area of drop versus buffer control on glass [6]: only marginally larger surface areas | surface area of drop versus buffer control on polystyrene [4]: only marginally larger surface areas
